Measurements published in patent US8901294B2, “MRI contrast agent having gadolinium complex” (priority 2010, dated 2014).
Read-outs that look alike come from different tables or passages of the source. Marks after values point to notes of the source that are not given here.

Columns and labels:
[1] = 25° C., μ = 0.10M (KCl); literature data; cited from earlier work
[2] = literature data, cited from earlier work; for LogK [GdL]/[Gd][L] (stability constant): 25° C., μ = 0.10M (KCl); for logKsel(Gd/Ca) (selectivity constant): Gd over Ca; for logKsel(Gd/Cu) (selectivity constant): Gd over Cu; for logKsel(Gd/Zn) (selectivity constant): Gd over Zn; for pGd: pM = −log[M]free at pH7.4, [M]total = 1 μmol/dm^3, [L]total = 1.1 μmol/dm^3
[3] = literature data, cited from earlier work; for LogK [ZnL]/[Zn][L] (stability constant): 25° C., μ = 0.10M (KCl); for pZn: pM = −log[M]free at pH7.4, [M]total = 1 μmol/dm^3, [L]total = 1.1 μmol/dm^3
[4] = literature data, cited from earlier work; for LogK [CuL]/[Cu][L] (stability constant): 25° C., μ = 0.10M (KCl); for pCu: pM = −log[M]free at pH7.4, [M]total = 1 μmol/dm^3, [L]total = 1.1 μmol/dm^3
[5] = 25° C., μ = 0.10M (KCl)
[6] = for logKsel(Gd/Ca) (selectivity constant): Gd over Ca; for logKsel(Gd/Ca) (selectivity constant) / logKsel(Gd/Cu) (selectivity constant) / logKsel(Gd/Zn) (selectivity constant): 25° C., μ = 0.10M (KCl); for logKsel(Gd/Cu) (selectivity constant): Gd over Cu; for logKsel(Gd/Zn) (selectivity constant): Gd over Zn; for logKGdL(pH7.4) (conditional stability constant): pH 7.4; for pGd: pM = −log[M]free at pH7.4, [M]total = 1 μmol/dm^3, [L]total = 1.1 μmol/dm^3
[7] = for logKCaL(pH7.4) (conditional stability constant): pH 7.4; for pCa: pM = −log[M]free at pH7.4, [M]total = 1 μmol/dm^3, [L]total = 1.1 μmol/dm^3
[8] = for logKZnL(pH7.4) (conditional stability constant): pH 7.4; for pZn: pM = −log[M]free at pH7.4, [M]total = 1 μmol/dm^3, [L]total = 1.1 μmol/dm^3
[9] = for logKCuL(PH7.4) (conditional stability constant): pH 7.4; for pCu: pM = −log[M]free at pH7.4, [M]total = 1 μmol/dm^3, [L]total = 1.1 μmol/dm^3
[10] = Transmetalation kinetics: evolution of paramagnetic relaxation rate R1P(t)/R1P(0) in presence of ZnCl2; type: physicochemical; conditions: phosphate-buffered solution pH 7.4, 2.5 mmol/L Gd-complex and 2.5 mmol/L ZnCl2, 72 hours
Description: […]. The relative value of R1^P at time t, R1^P(t)/R1^P(0), is therefore a good estimate of the extent of transmetalation. The evolution of R1^P(t)/R1^P(0) over time gives relevant information about the kinetics of the reaction, whereas the plateau value theoretically reached at t=∞ will reflect the thermodynamic aspect.
Accordingly, in order to investigate the transmetalation kinetics of the gadolinium complexes according to the present invention, the evolution of water proton relaxation rate (R1^P) of a phosphate-buffered solution (pH 7.4) containing 2.5 mmol/L of Gd-complex and 2.5 mmol/L of ZnCl2 with time was measured. To measure the change in the relaxation rate, 10 μL of a ZnCl2 solution (250 mmol/L) was added to 1 mL of a buffered solution of the Gd-complex and the mixture was vigorously stirred. The same experiment was performed with Dotarem®, Omniscan®, Multihance®, Primovist® and ethyl tranexamate (6) with zinc acetate for comparison. The measurement was made on a 3T whole body system (Magnetom Tim Trip; Simens, Germany) at room temperature.

[11] = reference values from ref. 8 or 9; cited from earlier work
[12] = Relaxation times (T1, T2) and relaxivities (R1, R2) at 1.5 T; type: physicochemical; conditions: 1.5 T; mean value(±SD)
Protocol: T1 measurements were carried out using an inversion recovery method with a variable inversion time (TI) at 1.5 T. The MR images were acquired at 35 different TI values ranging from 50 to 1750 ms. T1 relaxation times were obtained from the nonlinear least-squares fit of the signal intensity measured at each T1 value. For T2 measurements the CPMG (Carr-Purcell-Meiboon-Gill) pulse sequence was adapted for multiple spin-echo measurements. Thirty-four images were acquired with 34 different echo time (TE) values. T2 relaxation times were obtained from the nonlinear least-squares fit of the mean pixel values for the multiple spin-echo measurements at each echo time. Relaxivities were then calculated as an inverse (R=1/s·mM) of relaxation time per mM. The determined relaxation times and relaxivities are finally transformed to a phantom map. The phantom images were obtained with the same concentration of Dotarem® and gadolinium complexes or comparative purposes. […] Table 2 summarizes the relaxation times and relaxivities for gadolinium complexes of the present invention along with other Gd-complexes.

[13] = literature data, cited from earlier work; for LogK [CaL]/[Ca][L] (stability constant): 25° C., μ = 0.10M (KCl)

SMILES: O=C(O)CN(CCN(CC(=O)O)CC(=O)O)CCN(CC(=O)O)C(COCc1ccccc1)C(=O)O (centres unmarked) [BOPTA]
- LogK [H2L]/[HL][H] (protonation constant) [1]: 8.21
- LogK [H3L]/[H2L][H] (protonation constant) [1]: 4.35
- LogK [H4L]/[H3L][H] (protonation constant) [1]: 2.83
- LogK [HL]/[L][H] (protonation constant) [1]: 10.71
- ΣpKa (overall basicity) [1]: 26.10
- LogK [GdL]/[Gd][L] (stability constant) [2]: 22.6
- logKGdL(pH7.4) (conditional stability constant) [2]: 18.4
- logKZnL(pH7.4) (conditional stability constant) [3]: 13.9
- logKCuL(PH7.4) (conditional stability constant) [4]: 17.3

SMILES: C=CCOC(=O)C1CCC(CNC(=O)CN2CCN(CC(=O)O)CCN(CC(=O)O)CCN(CC(=O)O)CC2)CC1 (centres unmarked) [Compound 4c, DO3A-tranexamic Acid Ester Derivative 2]
- LogK [H2L]/[HL][H] (protonation constant) [5]: 8.64
- LogK [H3L]/[H2L][H] (protonation constant) [5]: 5.45
- LogK [HL]/[L][H] (protonation constant) [5]: 10.62
- logKsel(Gd/Ca) (selectivity constant) [6]: 6.55
- logKsel(Gd/Cu) (selectivity constant) [6]: 2.21
- logKsel(Gd/Zn) (selectivity constant) [6]: 3.91
- logKGdL(pH7.4) (conditional stability constant) [6]: 16.99
- pGd [6]: 15.99
- logKCaL(pH7.4) (conditional stability constant) [7]: 10.44
- pCa [7]: 9.43
- logKZnL(pH7.4) (conditional stability constant) [8]: 13.08
- pZn [8]: 12.08
- logKCuL(PH7.4) (conditional stability constant) [9]: 14.77
- pCu [9]: 13.77

SMILES: CCOc1ccc(C[C@@H](CN(CCN(CC(=O)O)CC(=O)O)CC(=O)O)N(CC(=O)O)CC(=O)O)cc1 [EOB-DTPA]
- LogK [H2L]/[HL][H] (protonation constant) [1]: 8.63
- LogK [H3L]/[H2L][H] (protonation constant) [1]: 4.26
- LogK [H4L]/[H3L][H] (protonation constant) [1]: 2.73
- LogK [HL]/[L][H] (protonation constant) [1]: 10.91
- ΣpKa (overall basicity) [1]: 26.53
- LogK [GdL]/[Gd][L] (stability constant) [2]: 23.46
- logKGdL(pH7.4) (conditional stability constant) [2]: 18.7

SMILES: CCOC(=O)C1CCC(CNC(=O)CN2CCN(CC(=O)O)CCN(CC(=O)O)CCN(CC(=O)O)CC2)CC1 (centres unmarked) [Compound 4b, DO3A-tranexamic Acid Ester Derivative 1]
- LogK [H2L]/[HL][H] (protonation constant) [5]: 9.35
- LogK [H3L]/[H2L][H] (protonation constant) [5]: 5.24
- LogK [HL]/[L][H] (protonation constant) [5]: 10.80
- logKsel(Gd/Ca) (selectivity constant) [6]: 6.65
- logKsel(Gd/Cu) (selectivity constant) [6]: 4.68
- logKsel(Gd/Zn) (selectivity constant) [6]: 5.43
- logKGdL(pH7.4) (conditional stability constant) [6]: 16.72
- pGd [6]: 15.72
- logKCaL(pH7.4) (conditional stability constant) [7]: 10.06
- pCa [7]: 9.06
- logKZnL(pH7.4) (conditional stability constant) [8]: 11.29
- pZn [8]: 10.29
- logKCuL(PH7.4) (conditional stability constant) [9]: 12.04
- pCu [9]: 11.04

SMILES: CNC[C@H](O)[C@@H](O)[C@H](O)[C@H](O)CO.CNC[C@H](O)[C@@H](O)[C@H](O)[C@H](O)CO.O=C([O-])CN(CCN(CC(=O)[O-])CC(=O)O)CCN(CC(=O)O)C(COCc1ccccc1)C(=O)[O-].[Gd+3] (centres unmarked) [Multihance]
- pattern of evolution of the paramagnetic relaxation rate R1P(t)/R1P(0) (in words) [10]: drastic decrease in the rate
- R1 relaxivity [11]: 4.0 ± 0.2 mM⁻¹ s⁻¹
- R2 relaxivity [11]: 4.3 ± 0.5 mM⁻¹ s⁻¹
- T1 relaxation time [11]: 250.62 ± 12.5 ms
- T2 relaxation time [11]: 235 ± 27.4 ms

SMILES: O.O=C([O-])CN1CCN(CC(=O)[O-])CCN(CC(=O)NCC2CCC(C(=O)O)CC2)CCN(CC(=O)[O-])CC1.[Gd+3] (centres unmarked) [Compound 5a]
- R1 relaxivity [12]: 3.9 ± 0.04 mM⁻¹ s⁻¹
- R2 relaxivity [12]: 4.0 ± 0.04 mM⁻¹ s⁻¹
- T1 relaxation time [12]: 256.43 ± 2.63^a msec
- T2 relaxation time [12]: 250.02 ± 2.50 ms

SMILES: CCOc1ccc(CC(CN(CCN(CC(=O)[O-])CC(=O)[O-])CC(=O)[O-])N(CC(=O)[O-])CC(=O)[O-])cc1.[Gd+3].[Na+].[Na+] (centres unmarked) [Primovist]
- pattern of evolution of the paramagnetic relaxation rate R1P(t)/R1P(0) (in words) [10]: drastic decrease in the rate
- R1 relaxivity [11]: 4.7 ± 0.2 mM⁻¹ s⁻¹
- R2 relaxivity [11]: 5.1 ± 0.6 mM⁻¹ s⁻¹
- T1 relaxation time [11]: 213.15 ± 9.07 ms
- T2 relaxation time [11]: 198.83 ± 23.4 ms

SMILES: O=C(O)CN1CCN(CC(=O)O)CCN(CC(=O)O)CCN(CC(=O)O)CC1 [DOTA]
- LogK [H2L]/[HL][H] (protonation constant) [1]: 9.68
- LogK [H3L]/[H2L][H] (protonation constant) [1]: 4.55
- LogK [H4L]/[H3L][H] (protonation constant) [1]: 4.13
- LogK [HL]/[L][H] (protonation constant) [1]: 12.09
- ΣpKa (overall basicity) [1]: 30.45
- LogK [GdL]/[Gd][L] (stability constant) [2]: 25.30
- logKsel(Gd/Ca) (selectivity constant) [2]: 8.07
- logKsel(Gd/Cu) (selectivity constant) [2]: 2.67
- logKsel(Gd/Zn) (selectivity constant) [2]: 4.25
- logKGdL(pH7.4) (conditional stability constant) [2]: 18.33
- pGd [2]: 19.2
- LogK [CaL]/[Ca][L] (stability constant) [13]: 17.23
- logKCaL(pH7.4) (conditional stability constant) [13]: 10.26
- LogK [ZnL]/[Zn][L] (stability constant) [3]: 21.05
- logKZnL(pH7.4) (conditional stability constant) [3]: 14.08
- pZn [3]: 15.19
- LogK [CuL]/[Cu][L] (stability constant) [4]: 22.63
- logKCuL(PH7.4) (conditional stability constant) [4]: 15.66
- pCu [4]: 14.05

SMILES: O=C(O)CN1CCN(CC(=O)O)CCN(CC(=O)NCC2CCC(C(=O)O)CC2)CCN(CC(=O)O)CC1 (centres unmarked) [Compound 4a, DO3A-tranexamic acid]
- LogK [H2L]/[HL][H] (protonation constant) [5]: 8.91
- LogK [H3L]/[H2L][H] (protonation constant) [5]: 4.93
- LogK [H4L]/[H3L][H] (protonation constant) [5]: 4.87
- LogK [HL]/[L][H] (protonation constant) [5]: 11.73
- logKsel(Gd/Ca) (selectivity constant) [6]: 10.56
- logKsel(Gd/Cu) (selectivity constant) [6]: 7.02
- logKsel(Gd/Zn) (selectivity constant) [6]: 7.87
- logKGdL(pH7.4) (conditional stability constant) [6]: 18.73
- pGd [6]: 17.73
- logKCaL(pH7.4) (conditional stability constant) [7]: 8.16
- pCa [7]: 7.16
- logKZnL(pH7.4) (conditional stability constant) [8]: 10.86
- pZn [8]: 9.86
- logKCuL(PH7.4) (conditional stability constant) [9]: 11.70
- pCu [9]: 10.70

SMILES: CNC[C@H](O)[C@@H](O)[C@H](O)[C@H](O)CO.O=C([O-])CN1CCN(CC(=O)[O-])CCN(CC(=O)O)CCN(CC(=O)[O-])CC1.[Gd+3] [Dotarem]
- R1 relaxivity [12]: 3.7 ± 0.04 mM⁻¹ s⁻¹
- R2 relaxivity [12]: 4.1 ± 0.21 mM⁻¹ s⁻¹
- T1 relaxation time [12]: 270.30 ± 2.92 ms
- T2 relaxation time [12]: 244.54 ± 12.5 ms

SMILES: O=C(O)CN(CCN(CC(=O)O)CC(=O)O)CCN(CC(=O)O)CC(=O)O [DTPA]
- LogK [H2L]/[HL][H] (protonation constant) [1]: 8.60
- LogK [H3L]/[H2L][H] (protonation constant) [1]: 4.28
- LogK [H4L]/[H3L][H] (protonation constant) [1]: 2.64
- LogK [HL]/[L][H] (protonation constant) [1]: 10.49
- ΣpKa (overall basicity) [1]: 26.01
- LogK [GdL]/[Gd][L] (stability constant) [2]: 22.46
- logKsel(Gd/Ca) (selectivity constant) [2]: 11.71
- logKsel(Gd/Cu) (selectivity constant) [2]: 1.08
- logKsel(Gd/Zn) (selectivity constant) [2]: 3.76
- logKGdL(pH7.4) (conditional stability constant) [2]: 18.14
- pGd [2]: 17.14
- LogK [CaL]/[Ca][L] (stability constant) [13]: 10.75
- logKCaL(pH7.4) (conditional stability constant) [13]: 6.43
- pCa ([13]; pM = −log[M]free at pH7.4, [M]total = 1 μmol/dm^3, [L]total = 1.1 μmol/dm^3): 5.45
- LogK [ZnL]/[Zn][L] (stability constant) [3]: 18.70
- logKZnL(pH7.4) (conditional stability constant) [3]: 14.38
- pZn [3]: 13.39
- LogK [CuL]/[Cu][L] (stability constant) [4]: 21.38
- logKCuL(PH7.4) (conditional stability constant) [4]: 17.06
- pCu [4]: 16.06
